Measurements published in ChEMBL document CHEMBL4177533, “Identification and Synthesis of Mycalol Analogues with Improved Potency against Anaplastic Thyroid Carcinoma Cell Lines” (J Nat Prod, 2017).

Assays:
[1] = Cytotoxicity against human FRO cells assessed as reduction in cell viability incubated for 72 hrs by Cell-titer 96 aqueous one assay; assay type: functional, cell-based
[2] = Cytotoxicity against human FRO cells assessed as reduction in cell viability in presence of shHMGA1 incubated for 72 hrs by Cell-titer 96 aqueous one assay; assay type: functional, cell-based
[3] = Cytotoxicity against human ACT1 cells assessed as reduction in cell viability incubated for 72 hrs by Cell-titer 96 aqueous one assay; assay type: functional, cell-based
8505C = test: Cytotoxicity against human 8505C cells assessed as reduction in cell viability incubated for 72 hrs by Cell-titer 96 aqueous one assay; assay type: functional, cell-based
[4] = Potency index, ratio of IC50 for mycalol to IC50 for test compound against human FRO cells assessed as reduction in cell viability incubated for 72 hrs by Cell-titer 96 aqueous one assay; assay type: functional
[5] = Cytotoxicity against human FRTL5 cells assessed as reduction in cell viability incubated for 72 hrs by Cell-titer 96 aqueous one assay; assay type: cell-based; conditions: FRTL-5, 72 h

With `CCCCC[C@H](CCCCCCCCCC[C@H](O)[C@H](O)CC[C@H](O)[C@H](O)CCOC[C@H](O)CO)OC(C)=O` as the compound, how does the IC50 [1] read?
Its IC50 is 16 µM.

For `CCCCCCC[C@H](CCCCCCCCCC[C@H](O)[C@H](O)CC[C@H](O)[C@H](O)CCOC[C@H](O)CO)OC(=O)C[C@H](C)O`, which IC50 [1] is on record?
Its IC50 is 16 µM.

Which IC50 [1] does the source give for `CCCCCCCC[C@H](CCCCCCCCCC[C@H](O)[C@H](O)CC[C@H](O)[C@H](O)CCOC[C@H](O)CO)OC(=O)C[C@H](C)O` here?
Its IC50 is 20 µM.

For `CCCCCCCCC[C@H](CCCCCCCCCC[C@H](O)[C@H](O)CC[C@H](O)[C@H](O)CCOC[C@H](O)CO)OC(=O)C[C@H](C)O`, which IC50 [1] is on record?
The IC50 was 4.7 µM.

Which results are given for `CCCCCCC[C@H](CCCCCCCCCC[C@H](O)[C@H](O)CC[C@H](O)[C@H](O)CCOC[C@H](O)CO)OC(C)=O` (stereo in doubt; form 1)?
IC50 [1]: 2.3 µM; IC50 ([2]; Homo sapiens, 72 h): 3.3 µM; IC50 ([3]; Homo sapiens, 72 h): 4.8 µM; IC50 (8505C; Homo sapiens, 8505C, 72 h): 2.6 µM; Ratio IC50 [4]: 6

With `CCCCCCC[C@H](CCCCCCCCCC[C@H](O)[C@H](O)CC[C@H](O)[C@H](O)CCOC[C@H](O)CO)OC(C)=O` (stereo in doubt; form 2) as the compound, how does the IC50 [2] read?
Its IC50 is 3.4 µM.

And the IC50 [3]?
Its IC50 is 5.1 µM.

What about the IC50 (8505C; 8505c) of the same compound?
The IC50 was 2.1 µM.

What about the IC50 [5] of the same compound?
The IC50 was > 40 µM.
